# From patent US7820673B2, “Urea derivative, process for producing the same, and use” (Takeda Pharmaceutical Company Limited, priority 2003, dated 2010)
# pIC50: −log10 of the molar value.
# Target: human FXa (Homo sapiens, UniProt P00742)
# Assay: Human activated blood coagulation factor X (FXa) inhibitory action
# Assay type: biochemical
# Details: concentration inhibiting 50% of the FXa action; substrate S-2765, 37° C., absorbance at 405 nm
# Method: (1) Human Activated Blood Coagulation Factor X (FXa) Inhibitory Action
# Method of experiment: 225 μl of a 0.05 M Tris hydrochloride buffer (pH 8.3) containing 0.145 M sodium chloride and 2 mM calcium chloride, 5 μl of a sample (the test compound is dissolved in dimethylsulfoxide), and 10 μl of human FXa (0.3 unit/ml) were added to a 96-well microplate to react at 37° C. for about 10 minutes, and then 10 μl of a substrate (3 mM, S-2765) was added thereto to react at 37° C. for about 10 minutes. Subsequently, 25 μl of a 50% aqueous acetic acid solution was added to terminate the reaction, and then the change in the absorbance at 405 nm was measured with a spectrophotometer to calculate the concentration inhibiting 50% of the FXa action (IC50).
# human FXa, sequence (P00742 235-488 limits assumed): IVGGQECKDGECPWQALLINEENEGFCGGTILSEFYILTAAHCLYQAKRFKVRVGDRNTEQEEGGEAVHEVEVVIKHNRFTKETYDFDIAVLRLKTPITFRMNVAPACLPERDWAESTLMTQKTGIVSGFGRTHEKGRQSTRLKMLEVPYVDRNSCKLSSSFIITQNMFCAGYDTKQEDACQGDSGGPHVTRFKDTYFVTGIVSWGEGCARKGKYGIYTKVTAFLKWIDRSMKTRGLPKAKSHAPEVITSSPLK
# human FXa, sequence (P00742 41-179 partner limits assumed): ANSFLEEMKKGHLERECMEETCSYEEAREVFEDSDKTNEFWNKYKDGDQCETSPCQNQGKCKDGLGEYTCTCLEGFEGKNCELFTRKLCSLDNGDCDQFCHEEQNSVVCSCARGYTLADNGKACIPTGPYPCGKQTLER
row,SMILES,pIC50
1,"COC(C)(C)C(NC(=O)Nc1ccc(Cl)cc1)C(=O)N1CCN(N2Cc3cnc(C)n3C2=O)CC1 (stereo not shown) [Example 74, N-(4-chlorophenyl)-N′-(2-methoxy-2-methyl-1-((4-(5-methyl-3-oxo-1H-imidazo[1,5-c]imidazol-2(3H)-yl)-1-piperazinyl)carbonyl)propyl)urea]",7.30
2,"CCC(O)(CC)C(NC(=O)Nc1ccc(Cl)cc1)C(=O)N1CCN(N2Cc3cnc(C)n3C2=O)CC1 (stereo not shown) [Example 37, N—(4-chlorophenyl)—N ′—(2-ethyl-2-hydroxy-1-((4-(5-methyl-3-oxo-1H-imidazo[1,5-c]imidazol-2(3H)-yl)-1-piperazinyl)carbonyl)butyl)urea]",7.59
3,"CSC(C)(C)[C@@H](NC(=O)Nc1ccc(Cl)cc1)C(=O)N1CCN(N2Cc3cnc(C)n3C2=O)CC1 [Example 40, N—(4-chlorophenyl)—N′—((1S)-2-methyl-1-((4-(5-methyl-3-oxo-1H-imidazo[1,5-c]imidazol-2(3H)-yl)-1-piperazinyl)carbonyl)-2-(methylthio)propyl)urea]",8.00
4,"Cc1ncc2n1C(=O)N(N1CCN(C(=O)[C@H](NC(=O)Nc3ccc(Cl)cc3)C(C)(C)C)CC1)C2 [Example 20, N—(4-chlorophenyl)—N′—((1R)-2,2-dimethyl-1-((4-(5-methyl-3-oxo-1H-imidazo[1,5-c]imidazol-2(3H)-yl)-1-piperazinyl)carbonyl)propyl)urea]",7.74
